For data set [1], the system named is TAK1-MKK4-JNK pro-apoptotic signaling in PAPD5-overexpressing cells. As to the kind of experiment: Western blotting of TAK1-MKK4-JNK caspase cascade, PAPD5-overexpressing cells. It is filed as cell-based. Here is the method:
(§1) SK-N-MC cells (ATCC) were cultured in DMEM (GE Healthcare BioSciences) supplemented with 10% fetal bovine serum and 1% penicillin-streptomycin. Cells were maintained in a 37° C. humidified cell culture incubator supplemented with 5% CO2. Plasmid DNA and siRNA/synthetic miRNA transfection was performed using Lipofectamine 2000 (Thermo Fisher Scientific) and Lipofectamine RNAiMAX (Thermo Fisher Scientific), respectively.
(§2) Proteins were extracted from SK-N-MC cells or mouse primary cortical neurons using SDS sample buffer. For protein extraction from mice, half of the brain was homogenized in protein lysis buffer (50 mM Tris-HCl, pH 7.6, 150 mM NaCl, 10% NP40, 5% sodium deoxycholate). All protein samples were boiled at 99° C. for 10 minutes, prior to Western blotting. Primary antibodies used were anti-PAPD5 (PA5-46747, 1:1,000) from Invitrogen; anti-p-TAK1 (4536, 1:1,000), anti-t-TAK1 (4505, 1:2,000), anti-p-MKK4 (9156, 1:1,000), anti-t-MKK4 (9152, 1:2,000), anti-p-MKK7 (4171, 1:1,000), anti-t-MKK7 (4172, 1:2,000), anti-p-JNK (9251, 1:2,000), anti-t-JNK (9252, 1:2,000), anti-TAB1 (3226, 1:2,000), anti-TAB2 (3745, 1:2,000), anti-cleaved caspase 3 (9664, 1:500) and anti-myc (2276, 1:2,000) from Cell Signaling Technology; antipolyQ (P1874, 1:1,000) and anti-HA (H3663, 1:2,000) from Sigma-Aldrich; anti-YY1 (ab109237, 1:2000) and anti-β-tubulin (ab6046, 1:2,000) from Abcam, and anti-GFP (JL-8, 1:4,000) from Clontech. Secondary antibodies used were goat anti-rabbit (11035-045, 1:5,000) and goat anti-mouse (115-035-062, 1:5,000) from Jackson ImmunoResearch.

The subject of data set [2] is EGFP-Htt1-550CAG89-expressing SK-N-MC cells. In words: LDH cell death assay, EGFP-Htt1-550CAG89-expressing SK-N-MC cells. It is filed as cell-based. As for the experimental part:
as §1
(§3) The LDH assay on SK-N-MC cells were performed according to manufacturer's instructions (CytoTox 96 Non-Radioactive Cytotoxicity Assay Kit, Promega).

Data set [3] relates to PAPD5-overexpressing cells. As to the kind of experiment: LDH cell death assay, PAPD5-overexpressing cells. It is filed as cell-based. The settings on record: PAPD5 overexpression. As for the experimental part: as §1, §3
Data set [4] has as its system EGFPCAG78-expressing SK-N-MC cells. As to the kind of experiment: LDH cell death assay, EGFPCAG78-expressing SK-N-MC cells. It is filed as cell-based. As for the experimental part: as §1, §3
The test system of data set [5] is TAK1-MKK4-JNK pro-apoptotic signaling in EGFP-Htt1-550CAG89-expressing cells. As to the kind of experiment: Western blotting of TAK1-MKK4-JNK caspase cascade, EGFP-Htt1-550CAG89-expressing SK-N-MC cells. It is filed as cell-based. As for the experimental part:
as §1, §2

For data set [6], the system named is TAK1-MKK4-JNK pro-apoptotic signaling in EGFPCAG78-expressing cells. As to the kind of experiment: Western blotting of TAK1-MKK4-JNK caspase cascade, EGFPCAG78-expressing cells. It is filed as cell-based. The settings on record: for TAB2 expression / TAB1 expression / TAK1-triggered cell death: EGFPCAG78-transfected cells; for EGFPCAG78-induced TAK1 functional deregulation: FIG. 9B; for TAK1-triggered cell death: FIG. 9A. As for the experimental part:
as §1, §2

Data set [7] concerns A-beta peptide toxicity. As to the kind of experiment: A-beta1-42 peptide transgenic Drosophila model of Alzheimer's Disease. The following applies: A-beta1-42 transgenic Drosophila. It is filed as in vivo.

The values that follow come from patent publication US20260183276A1, “miRNA DYSREGULATION CORRECTION AS A STRATEGY TO TREAT HUNTINGTON'S DISEASE” (The Chinese University of Hong Kong, priority 2022, published 2026).

“Also recorded” adds a separate entry of the source.

Regarding `COc1cc(O)c2c(c1)/C=C/C[C@H](O)[C@H](O)C(=O)/C=C\C[C@H](C)OC2=O` [5Z-7-oxozeaenol], in data set [1], the TAK1/MKK4/JNK phosphorylation result is “dose-dependent decrease” and the “caspase 3 cleavage” value is “dose-dependent decrease”. In addition, the EGFP-Htt1-550CAG89-induced cell death entry in data set [2] is “rescued”. Besides, the PAPD5-induced cell death entry in data set [3] is “suppressed”. Also, the “mutant CAG RNA (EGFPCAG78)-induced cell death” value in data set [4] was “rescued”. For the same compound, in data set [5], the “caspase 3 cleavage” value is “rescued”; the “phosphorylation levels of TAK1, MKK4 and JNK” value is on record as “rescued”. The “TAK1-MKK4-JNK pro-apoptotic signaling (phosphorylation of TAK1, MKK4, JNK, caspase 3 cleavage)” value in data set [6] (EGFPCAG78-expressing cells) is recorded as “suppressed”.
Regarding `COCCCOc1cc2c(cc1OC)-c1cc(=O)c(C(=O)O)cn1[C@H](C(C)C)C2` [RG7834], in data set [7], the “A-beta peptide toxicity (retinal degeneration)” value is “capable of suppressing”.
Turning to “miR-7-5p: miRNA (IDT), SEQ ID NO: 15, predicted to target TAB2”, in data set [6], the TAB2 expression entry is on record as “capable of silencing” and the “EGFPCAG78-induced TAK1 functional deregulation” value is “inhibiting”.
Regarding “miR-10a-5p: miRNA (IDT), SEQ ID NO: 10, predicted to target TAB1 (UACCCUGUAGAUCCGAAUUUGUG; listed as RNA, chemistry not given here)”, in data set [6], the TAB1 expression result is reported as “able to silence” and the TAK1-triggered cell death entry is “inhibit”.
Turning to “miR-22-5p: miRNA (IDT), SEQ ID NO: 14, predicted to target TAB2 (AGUUCUUCAGUGGCAAGCUUUA; listed as RNA, chemistry not given here)”, in data set [6], the TAB2 expression entry was “capable of silencing” and the “EGFPCAG78-induced TAK1 functional deregulation” value is on record as “inhibiting”.
“miR-331-3p: miRNA (IDT), SEQ ID NO: 12, predicted to target TAB1 (GCCCCUGGGCCUAUCCUAGAA; listed as RNA, chemistry not given here)”: in data set [6], the TAB1 expression entry is recorded as “able to silence” and the TAK1-triggered cell death result was “inhibit”.
In the case of “miR-504: miRNA targeting TAB1, expressed from construct pRI-CMV/GFP-miR-504 (mimic sequence SEQ ID NO: 3) (GACCCTGGTCTGCACTCTATC; listed as DNA, chemistry not fully specified)”, in data set [2], the EGFP-Htt1-550CAG89-induced cell death result was “rescued”. For the same compound, the “mutant CAG RNA (EGFPCAG78)-induced cell death” value in data set [4] is recorded as “inhibited in a dose-dependent manner”. In data set [5], the “caspase 3 cleavage” value is recorded as “rescued”; the “phosphorylation levels of TAK1, MKK4 and JNK” value is “rescued”. The “phosphorylation of TAK1 and JNK, and cleavage of caspase 3” value in data set [6] (EGFPCAG78-expressing cells, miRNA overexpression) was “suppressed”. In addition, in data set [6], the TAB1 expression entry is listed as “most robust gene-silencing effects; also recorded: reduced”.
